The source of these data is US20220362174A1, “Use of R-enantiomer Beta2-agonists for prevent and treatment of pulmonary inflammation and inflammatory remodeling for reduced adverse effects” (priority 2019, published 2022).

In assay [1] the test system is OVA-sensitized/OVA-challenged mice. The experiment in a line: Airway responsiveness to methacholine by whole-body plethysmography (Penh) in OVA sensitized/challenged asthma model. Type of assay: in vivo. As to conditions: for airway bronchoconstriction/hyperactivity (Penh) in response to increased doses of Mch: Mch 2, 10, 20 mg/mL aerosol, rac-ter at double dose of R-ter. As to the method: (§1) OVA sensitized/challenged asthma model Mice were sensitized and challenged with ovalbumin (OVA) or normal saline. Briefly, mice were sensitized by intraperitoneal (i.p.) injection of 0.2 mL of 2% aluminum hydroxide (ALUM) gel containing 10 μg of OVA antigen on days 0 and 14. On days 21, 22 and 23, the mice were challenged with 1% OVA in saline (0.01 g/mL) for 20 min via. a nebulizer (PART Turbo boy). On day 26, a 20 min nebulized OVA challenge with 5% OVA in saline (0.05 g/mL) was conducted. The control group received 0.2 mL of saline with 2% ALUM administered intraperitoneally on days 0 and 14 before receiving 20 min nebulized normal saline without OVA on days 21, 22, 23 and 26.
In vivo airway responsiveness to methacholine (Mch) was assessed on day 28 in conscious, freely moving, spontaneously breathing mice by a whole-body plethysmography (Buxco Electronics Inc.). Mice were challenged with aerosolized saline or increasing concentrations of Mch (2, 10, 20 mg/mL) administered by an ultrasonic nebulizer for 2 min. Before Mch challenge, a 20 μL drug aerosol or saline was given to the mice because of the short-acting bronchodilating effect of terbutaline. The degree of bronchoconstriction was expressed as enhanced pause (Penh), a calculated dimensionless value that correlates with measurement of airway resistance, impedance, and intrapleural pressure. Penh values were recorded and averaged for 4 min after each nebulization challenge.

Assay [2] shares this test system. The experiment in a line: Whole blood analysis and eosinophils counts in BAL fluid. Type of assay: in vivo. As to conditions: for per cent of eosinophil counts in blood and BALF: OVA asthma mice after repeated inhalation. As for the experimental part:
as §1
After Methacholine challenge, mice were anesthetized, blood was collected for hematology analysis. Part of the collected blood was transferred to a heparinized Eppendorf tube, gently mixed and centrifuged under 845×g at 4° C. for 10 min to isolate plasma specimen for further analysis. Broncho alveolar lavage (BAL) was performed on the right lung using 0.3 mL of phosphate buffered saline (PBS) for four times. The saline was instilled into the lungs and allowed to equilibrate for 30 s before recovery, after centrifugation supernatants were stored at −80° C. for further cytokines analysis while cell pellet was suspended in 0.5 ml PBS and the eosinophils counts were performed using Wright's stain. Then all the organs (liver, right lung lobe, spleen, kidneys, heart, brain) were excised surgically and washed totally with ice-cold PBS to clear the blood and then blotted dry with filter paper. These tissue specimens were then accurately weighted and stored at −80° C. for detecting the drug distribution by LC-MS/MS. White blood cell (WBC) counts and differential WBC counts were analyzed using a ProCyte Dx Hematology Analyzer (IDEXX Laboratories) in 4 h after blood collection.

A further assay has as its system NF-κB. The experiment in a line: mRNA of NF-κB in the lung by quantitative real-time PCR. Type of assay: in vivo, mice. Conditions: vs OVA group. As for the experimental part:
as §1
The level of mRNA of NF-κB in the lung were analyzed by quantitative real-time PCR analysis. The total RNA was extracted from lung tissue using RNaEX™ Total RNA Isolation Kit (Generay Biotech). The quality and quantity of RNA samples were assessed by NanoDrop ND-2000c spectrophotometer (Thermo Fisher Scientific, Inc., Wilmington, Del.). Total RNA (1 μg) was reverse transcribed into cDNA using cDNA Reverse Transcription Kit (Vazyme Biotech, Nanjing, China) according to the manufacturer's instruction. Real-time PCR reactions were performed using the 7500 real-time-PCR system (Applied Biosystems, Foster City, Calif., USA) with AceQ qPCR SYBR Green Master Mix (Vazyme Biotech, Nanjing, China). […]
In general terms: Real-time PCR tracks product formation cycle by cycle.

For assay [3], the system named is Th2 cytokines (IL-4, IL-5, IL-13). The experiment in a line: Analysis of cytokine levels in BAL fluid (ELISA). Type of assay: in vivo, mice. As to conditions: for cytokines released (FIG. 3): pretreatment for 7 consecutive days; for IL-5 in BALF / IL-4 release in BALF / IL-13 release in BALF: vs OVA group. As to the method: as §1
BAL fluid samples were analyzed for the concentrations of mouse IL-4 and IL-5 using commercial ELISA kits according to the manufacturers instructions (R&D Systems, Minneapolis, Minn.). IL-13 was assayed in BAL fluid with a mouse IL-13 immunoassay kit (Abeam, Cambridge, UK) following the manufacturer's protocol.

The next assay deals with NF-κB p65. The experiment in a line: Western blot of lung tissue: NF-κB p65 phosphorylation. Type of assay: in vivo, mice. As to the method: as §1
(§2) Total protein from lung tissue was extracted according to the guidelines of manufacturer (Beyotime, China) and the concentrations were determined by BCA assay (Pierce). Primary antibodies against p38 MAPK (CST #8690), p-p38 MAPK (Thr180/Tyr182, CST #4511), NF-κB p65 (GeneTex #GTX102090), p-NF-κB p65 (S536, CST #3033) and GAPDH (Affinity #AF7021) as a standard were purchased and used.

In a further assay the test system is NF-κB and MARK pathways. The experiment in a line: NF-κB and MARK pathways, cytokines and ROS in LPS sepsis. The text has this: LPS interacts with pathogen recognition receptors such as TLRs would also activate NF-κB and MARK pathways, which would further lead to an over-production of cytokines. […] The “cytokine storm” in sepsis involves in excessive release of INFs, IL-1B, IL-2,4,6,10,12, TNFa and MCP etc.
In sepsis, there are also over productions of chemokines such as ROS. […] This invention disclosed the similar effects of other RS-racemic, S-enantiomer or R-enantiomer beta2 agonists including: salbutamol, bambuterol, vilanterol, clenterol, salmeterol, formoterol, trantinterol and Indacaterol and other β2 agonists.

For assay [4], the system named is OVA-sensitized/OVA-challenged mice. Description: Lung histopathology (H&E, PAS, Masson) after R-, S-, rac-terbutaline. Type of assay: in vivo. Conditions: for PAS stain of lung tissues: inflammatory and histopathological changes, collagen deposition: Example 3, vs model; for wall thickness of vessels / inflammatory remodeling processes: repeated inhalation, OVA mice; for PAS and Masson staining: subepithelial matrix glycoproteins, goblet cell hyperplasia, collagen deposition: vs OVA group; for smooth muscle hypertrophy, thickness of bronchial and vascular smooth muscle layer: vs OVA-treated mice. As for the experimental part:
as §1
Left lung tissue was obtained for histopathology and fixed in 10% formalin for 24 h, followed by paraffin-embedded and then were sectioned at 4 μm for routine staining with hematoxylin and eosin (H&E, Solarbio, Beijing, China), or with periodic acid-Schiff (PAS, Solarbio, Beijing, China), or submitted to Masson's trichrome staining (Baso, Zhuhai, China). Images of the stained lung sections were obtained by an Axisplus image-capturing system (Zeiss, Germany) and then a minimum of 3 bronchi (luminal diameter, 150-500 μm) were analyzed per mice for various parameters using an image analyzing computer system (IPP) by pathologists blinded to grouping. Histological score, airway smooth muscle thickness, PAS score (goblet cells hyperplasia), and collagen deposition were evaluated by a semi-quantitative scoring method.

In another assay the test system is p38 MAPK. The experiment in a line: Western blot of lung tissue: p38 MAPK phosphorylation. As to conditions: vs OVA group. Type of assay: in vivo, mice. As for the experimental part: as §1, §2
Another assay has as its system BALB/c mice. Description: Survival study after LPS challenge (sepsis). The class given is in vivo. As to the method:
Treatment were given intraperitoneally for 3 consecutive days. One hour after the 3rd day treatments, LPS (15 mg/kg) was administered intraperitoneally. The animals were monitored. Survival rate was then recorded every 12 h for 144 hours.

The next assay concerns OVA-sIgE. The experiment in a line: Measurement of OVA-sIgE in plasma (ELISA). Type of assay: in vivo, mice. Conditions: vs OVA group. As for the experimental part: as §1
OVA-sIgE in plasma was measured using an enzyme-linked immunosorbent assay (ELISA) kit following the manufacturer's specification.
A general note: In an ELISA, binding on a coated surface is turned into a signal by an enzyme label.

[5] abbreviates: 0.5 mg/kg + LPS, Saline + LPS 90.9.

Entries after “also recorded” stand apart in the source; their conditions may differ.

As for `CC(C)(C)NC[C@H](O)c1cc(O)cc(O)c1` [R-terbutaline], the “airway bronchoconstriction/hyperactivity (Penh) in response to increased doses of Mch” value in assay [1] is recorded as “attenuated significantly”. Besides, the “baseline Penh value (baseline airway reactivity)” value in assay [1] (exposure to saline, after 7 days inhalation pretreatment, OVA group 0.80±0.12, Control group 0.55±0.08, rac-terbutaline at double molar amount) is given as “significantly reduce”. For the same compound, the “influx of eosinophils into BALF” value in assay [2] (OVA asthma mice) was “significantly inhibited”. Further, in assay [2], the “per cent of eosinophil counts in blood and BALF” value is reported as “significantly reduced”. The “NF-κB expression (mRNA transcript) in lung” value with NF-κB is given as “effectively inhibited”. Further, in [3], the “cytokines released (FIG. 3)” value was “significantly inhibited the release” and the “IL-5 in BALF” value was “significantly inhibited”. Further, the “IL-5 in BALF” value in assay [3] (listed as R-ter) is “significantly reduced”. The “ratio of phosphorylated to total p65 NF-κB” value in the assay on NF-κB p65 is “decreased”. In the assay with NF-κB and MARK pathways (LPS sepsis), the “NF-κB and MARK pathways activated by LPS (expression or phosphorylation)” value is on record as “significantly inhibited”; the “over production of inducible NO (iNO) and another ROS” value is “significantly prevent and inhibit”. In addition, in the assay on NF-κB and MARK pathways (sepsis), the “production or release of cytokines (cytokine storm)” value is “significantly reduced”. In assay [4], the “PAS stain of lung tissues: inflammatory and histopathological changes, collagen deposition” value was “significantly ameliorate; also recorded: significantly alleviated or improved”; the “wall thickness of vessels / inflammatory remodeling processes” value was “significantly diminished”; the “PAS and Masson staining: subepithelial matrix glycoproteins, goblet cell hyperplasia, collagen deposition” value was “reversed and recovered toward normal”; the “smooth muscle hypertrophy, thickness of bronchial and vascular smooth muscle layer” value is listed as “suppressed”. For the same compound, the “degree of inflammatory cell infiltration (H&E, histological score)” value in assay [4] (rac-terbutaline at double dose) is recorded as “ameliorated”. Also, the “p38 MAPK phosphorylation (ratio of phosphorylated to total p38 MAPK)” value with p38 MAPK was “decreased”. The “p38 MAPK phosphorylation (ratio of phosphorylated to total p38 MAPK)” value in the assay with p38 MAPK (listed as R-ter) is “markedly suppressed”. Moreover, the “Percent of death after LPS challenges, 12 h” value with BALB/c mice (0.5 mg/kg + LPS, Saline + LPS 0) is 0%. In addition, the “Percent of death after LPS challenges, 24 h” value in the assay on BALB/c mice (0.5 mg/kg + LPS, Saline + LPS 36.4) was determined as 18.2%. Also, the “Percent of death after LPS challenges, 36 h” value in the assay on BALB/c mice (0.5 mg/kg + LPS, Saline + LPS 72.7) was 27.3%. Besides, in the assay with BALB/c mice (setting [5]), the “Percent of death after LPS challenges, 48 h” value was 36.4%; the “Percent of death after LPS challenges, 72 h” value worked out at 36.4%; the “Percent of death after LPS challenges, 144 h” value worked out at 36.4%. In the assay on BALB/c mice (in comparison of LPS challenged group without pretreatment (mortality 90.9%)), the “rate of mortality/death after LPS challenge (in words)” value is “greatly reduced or even diminished”. Besides, the “OVA-sIgE level in plasma” value with OVA-sIgE is “markedly inhibited”.

Consider `CC(C)(C)NC[C@@H](O)c1cc(O)cc(O)c1` [S-terbutaline], for which the “airway bronchoconstriction/hyperactivity (Penh) in response to increased doses of Mch” value in assay [1] is given as “further exacerbation of airway hyperactivity”. In addition, in [1] (OVA induced asthma mice, baseline), the lung compliance result is “reduced lung compliances”. For the same compound, the “per cent of eosinophil counts in blood and BALF” value in assay [2] is given as “significantly increased; also recorded: significantly higher; also recorded: the highest”. Besides, the “NF-κB expression (mRNA transcript) in lung” value with NF-κB was “further enhanced”. In addition, in [3], the “cytokines released (FIG. 3)” value is “did the opposite”, the “IL-4 release in BALF” value is “further increase” and the “IL-13 release in BALF” value is “further increase”. In assay [3] (listed as S-ter), the “IL-4 release in BALF” value is given as “further increased” and the “IL-13 release in BALF” value is “further increased”. Besides, the “ratio of phosphorylated to total p65 NF-κB” value in the assay with NF-κB p65 is recorded as “enhanced”. In the assay with NF-κB and MARK pathways (LPS sepsis), the “NF-κB and MARK pathways activated by LPS (expression or phosphorylation)” value is “further enhanced”. Further, in assay [4], the “PAS stain of lung tissues: inflammatory and histopathological changes, collagen deposition” value is on record as “further enhanced; also recorded: further worsened”; the “wall thickness of vessels / inflammatory remodeling processes” value is on record as “further increase of wall thickness of vessels”; the “PAS and Masson staining: subepithelial matrix glycoproteins, goblet cell hyperplasia, collagen deposition” value was “further exacerbated”; the “smooth muscle hypertrophy, thickness of bronchial and vascular smooth muscle layer” value is reported as “further enhanced”. Further, in the assay with p38 MAPK, the “p38 MAPK phosphorylation (ratio of phosphorylated to total p38 MAPK)” value was “enhanced”. In addition, in the assay on p38 MAPK (listed as S-ter), the “p38 MAPK phosphorylation (ratio of phosphorylated to total p38 MAPK)” value is recorded as “further increased”. In addition, in the assay with OVA-sIgE, the “OVA-sIgE level in plasma” value is recorded as “further increase”.
